According to the supplement of paper PMC11579375:

Columns and labels:
Test in all cases: area under the viability dose-response curve (AUC) (AUC (arbitrary units, max 500 = no viability loss)); higher = less sensitive (higher viability)
Conditions in all cases: exposure time: 120 h; concentration range: 0.1 nM - 10 µM, 6 doses
[1] = tested on: 3E (embryonal-type hepatoblastoma organoid)
Protocol: (§1)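 Patient-derived hepatoblastoma tumor organoids (about 50 organoids per well, 384-well plates, medium with 5% BME) were treated with the PMC pediatric cancer drug library. Each drug was tested in duplicate at 6 concentrations (0.1 nM to 10 µM, 10-fold steps).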

[2] = tested on: 22E (embryonal-type hepatoblastoma organoid)
Protocol: as §1

[3] = tested on: 13E (embryonal-type hepatoblastoma organoid)
Protocol: as §1

[4] = tested on: 135F2 (fetal-II hepatoblastoma organoid with high liver markers)
Protocol: as §1

[5] = tested on: 27F1 (fetal-I hepatoblastoma organoid with intermediate liver markers)
Protocol: as §1

[6] = tested on: 17E (embryonal-type hepatoblastoma organoid)
Protocol: as §1

[7] = tested on: 8F1 (fetal-I hepatoblastoma organoid with intermediate liver markers)
Protocol: as §1

[8] = tested on: 96F1 (fetal-I hepatoblastoma organoid with intermediate liver markers)
Protocol: as §1

[9] = tested on: 10F2 (fetal-II hepatoblastoma organoid with high liver markers)
Protocol: as §1

[10] = tested on: 17F1 (fetal-I hepatoblastoma organoid with intermediate liver markers)
Protocol: as §1

[11] = tested on: 13F2 (fetal-II hepatoblastoma organoid with high liver markers)
Protocol: as §1

| SMILES | area under the viability dose-response curve [1] | area under the viability dose-response curve [2] | area under the viability dose-response curve [3] | area under the viability dose-response curve [4] | area under the viability dose-response curve [5] | area under the viability dose-response curve [6] | area under the viability dose-response curve [7] | area under the viability dose-response curve [8] | area under the viability dose-response curve [9] | area under the viability dose-response curve [10] | area under the viability dose-response curve [11] |
| --- | --- | --- | --- | --- | --- | --- | --- | --- | --- | --- | --- |
| C#Cc1cccc(Nc2ncnc3cc(OCCOC)c(OCCOC)cc23)c1 [Erlotinib] | 476 | 485 | 488 | 469 | 423 | 448 | 463 | 415 | 311 | 448 | 360 |
| COc1cc([C@@H]2c3cc4c(cc3[C@@H](O[C@@H]3O[C@@H]5CO[C@@H](C)O[C@H]5[C@H](O)[C@H]3O)[C@H]3COC(=O)[C@H]23)OCO4)cc(OC)c1O [Etoposide] | 378 | 446 | 380 | 389 | 446 | 349 | 477 | 383 | 388 | 438 | 359 |
| CO[C@H]1C[C@@H]2CC[C@@H](C)[C@@](O)(O2)C(=O)C(=O)N2CCCC[C@H]2C(=O)O[C@H]([C@H](C)C[C@@H]2CC[C@@H](OCCO)[C@H](OC)C2)CC(=O)[C@H](C)/C=C(\C)[C@@H](O)[C@@H](OC)C(=O)[C@H](C)C[C@H](C)/C=C/C=C/C=C/1C [Everolimus] | 303 | 356 | 393 | 453 | > 500 | 334 | 467 | 464 | 373 | 494 | 327 |
| CC1=C(/C=C/C(C)=C/C=C/C(C)=C/C(=O)Nc2ccc(O)cc2)C(C)(C)CCC1 [Fenretinide] | 386 | 418 | 446 | 430 | 484 | 426 | 470 | 430 | 418 | 443 | 469 |
| COc1ccc(-c2nc(N3CCOCC3)c3sc(CN(C)c4ncc(C(=O)NO)cn4)cc3n2)cn1 [Fimepinostat] | 161 | 237 | 236 | 166 | 255 | 158 | 296 | 235 | 169 | 255 | 167 |
| C=CC(=O)N1CC[C@H](n2nc(C#Cc3cc(OC)cc(OC)c3)c3c(N)ncnc32)C1 [Futibatinib] | 236 | 425 | 372 | > 500 | > 500 | 323 | 482 | > 500 | 440 | > 500 | 370 |
| CCOC(=O)CCNc1cc(N2CCc3ccccc3CC2)nc(-c2ccccn2)n1 [GSK J4] | 445 | 476 | 449 | 468 | > 500 | 452 | 494 | 492 | 493 | 483 | 438 |
| Cc1cccc(-c2nn3c(c2-c2ccnc4ccc(C(N)=O)cc24)CCC3)n1 [Galunisertib] | > 500 | 482 | 493 | 493 | > 500 | > 500 | > 500 | 481 | 465 | > 500 | > 500 |
| CC(C)c1cc(-c2n[nH]c(=O)n2-c2ccc3c(ccn3C)c2)c(O)cc1O [Ganetespib] | 265 | 345 | 269 | 340 | 278 | 232 | 265 | 358 | 236 | 343 | 243 |
| Nc1ccn([C@@H]2O[C@H](CO)[C@@H](O)C2(F)F)c(=O)n1 [Gemcitabine] | 241 | 331 | 339 | 237 | 310 | 257 | 433 | 273 | 212 | 273 | 209 |
| CN1CC[C@@H](NC(=O)Nc2ccc(C#N)cc2)C[C@@H]1c1nc2ccccc2[nH]1 [Glasdegib] | > 500 | > 500 | > 500 | > 500 | > 500 | > 500 | > 500 | > 500 | 448 | 497 | > 500 |
| CCn1cc(-c2cccc(C(F)(F)F)c2)c2sc(C(=N)NC3CCS(=O)(=O)CC3)cc2c1=O [I-BRD9] | 376 | 493 | 470 | 471 | > 500 | 461 | 459 | 478 | > 500 | 490 | 435 |
| C[C@H](NC(=O)c1c(N)nn2cccnc12)c1cc2cccc(C#Cc3cnn(C)c3)c2c(=O)n1-c1ccccc1 [IPI549] | 428 | 477 | 463 | > 500 | > 500 | 464 | > 500 | 459 | 459 | > 500 | 479 |
| C=CC(=O)N1CCC[C@@H](n2nc(-c3ccc(Oc4ccccc4)cc3)c3c(N)ncnc32)C1 [Ibrutinib] | > 500 | 443 | 476 | 455 | 418 | 439 | 480 | 438 | 386 | 488 | 358 |
| C#Cc1cccc(Nc2ncnc3cc4c(cc23)OCCOCCOCCO4)c1 [Icotinib] | 474 | > 500 | 497 | 474 | 442 | 487 | 495 | 464 | 376 | 465 | 406 |
| COc1cc(C(=O)O)ccc1NC(=O)[C@@H]1N[C@@H](CC(C)(C)C)[C@](C#N)(c2ccc(Cl)cc2F)[C@H]1c1cccc(Cl)c1F [Idasanutlin] | 349 | 450 | 413 | 397 | 402 | 378 | 371 | 471 | 291 | 457 | 282 |
| CC[C@H](Nc1ncnc2[nH]cnc12)c1nc2cccc(F)c2c(=O)n1-c1ccccc1 [Idelalisib] | 491 | 492 | 497 | > 500 | 492 | 488 | 484 | > 500 | 492 | 495 | 496 |

| SMILES | area under the viability dose-response curve [1] | area under the viability dose-response curve [2] | area under the viability dose-response curve [3] | area under the viability dose-response curve [4] | area under the viability dose-response curve [5] | area under the viability dose-response curve [6] | area under the viability dose-response curve [7] | area under the viability dose-response curve [8] | area under the viability dose-response curve [9] | area under the viability dose-response curve [10] | area under the viability dose-response curve [11] |
| --- | --- | --- | --- | --- | --- | --- | --- | --- | --- | --- | --- |
| Cc1ccc(NC(=O)c2ccc(CN3CCN(C)CC3)cc2)cc1Nc1nccc(-c2cccnc2)n1 [Imatinib] | 487 | 500 | 499 | 478 | 481 | 496 | 483 | 498 | 488 | 478 | 498 |
| CC(C)NC[C@@H](C(=O)N1CCN(c2ncnc3c2[C@H](C)C[C@H]3O)CC1)c1ccc(Cl)cc1 [Ipatasertib] | 436 | 433 | 456 | 496 | 483 | 437 | 434 | 445 | 433 | 495 | 442 |
| CC1=C(/C=C/C(C)=C/C=C/C(C)=C\C(=O)O)C(C)(C)CCC1 [Isotretinoin] | 440 | 472 | 468 | 496 | > 500 | 495 | > 500 | > 500 | > 500 | > 500 | > 500 |
| CC(C)C[C@H](NC(=O)CNC(=O)c1cc(Cl)ccc1Cl)B(O)O [Ixazomib] | 256 | 321 | 282 | 261 | 282 | 247 | 287 | 294 | 246 | 278 | 264 |
| Cc1cc(-c2ncc(CC(=O)Nc3ccc(-c4cnccn4)cn3)cc2C)ccn1 [LGK974] | > 500 | 494 | 497 | 499 | 492 | 475 | 489 | 491 | 474 | 497 | 477 |
| Cc1cc(C)cc(C(=O)NOCCCCCC(=O)NO)c1 [LMK-235] | 407 | 413 | 404 | 378 | 411 | 365 | 428 | 426 | 395 | 418 | 379 |
| O=c1nc(N2CCOCC2)oc2c(-c3cccc4c3sc3ccccc34)cccc12 [LTURM34] | 486 | 433 | 473 | 467 | > 500 | 487 | 489 | 497 | 393 | 490 | 484 |
| CS(=O)(=O)CCNCc1ccc(-c2ccc3ncnc(Nc4ccc(OCc5cccc(F)c5)c(Cl)c4)c3c2)o1 [Lapatinib] | 464 | 463 | 483 | 474 | 416 | 482 | 495 | 445 | 336 | 459 | 388 |
| O=C(Nc1cnn2ccc(N3CCC[C@@H]3c3cc(F)ccc3F)nc12)N1CC[C@H](O)C1 [Larotrectinib] | 450 | > 500 | 487 | 495 | > 500 | 453 | 473 | 481 | > 500 | 467 | > 500 |
| COc1cc2nccc(Oc3ccc(NC(=O)NC4CC4)c(Cl)c3)c2cc1C(N)=O [Lenvatinib] | 475 | 472 | 468 | 469 | 445 | 434 | 461 | 474 | 419 | > 500 | 445 |
| C[C@]1(O)C[C@@H](c2nc(-c3ccc4ccc(-c5ccccc5)nc4c3)c3c(N)nccn32)C1 [Linsitinib] | 374 | 391 | 405 | 487 | 476 | 384 | 484 | 454 | 467 | 492 | 410 |
| C[C@H]1Oc2cc(cnc2N)-c2c(nn(C)c2C#N)CN(C)C(=O)c2ccc(F)cc21 [Lorlatinib] | 459 | 471 | 450 | 498 | 471 | 416 | 476 | 463 | 435 | 481 | 448 |
| NC1(c2ccc(-c3nc4ccn5c(=O)[nH]nc5c4cc3-c3ccccc3)cc2)CCC1 [MK-2206] | 371 | 440 | 415 | 462 | 459 | 377 | 431 | 427 | 445 | 473 | 395 |
| CCC(CC)(NC(=O)C(C)C)C(=O)N[C@@H](CCCN=C(N)N)C(=O)NC1(C(=O)NC(c2ccc(F)cc2)c2ccc(F)cc2)CCCC1 [MM102] | > 500 | 464 | > 500 | 497 | 493 | > 500 | > 500 | 485 | 445 | 486 | 482 |
| CN/N=N/c1[nH]cnc1C(N)=O [MTIC] | > 500 | > 500 | > 500 | > 500 | > 500 | > 500 | > 500 | > 500 | 445 | > 500 | 443 |
| Cc1ccc(NC(=O)c2ccc(CN3CCN(C)CC3)cc2)cc1Nc1nc(-c2cccnc2)cs1 [Masitinib] | 483 | 474 | 489 | 473 | > 500 | 462 | > 500 | 484 | 497 | > 500 | 489 |
| N[C@@H](Cc1ccc(N(CCCl)CCCl)cc1)C(=O)O [Melphalan] | > 500 | > 500 | 417 | 469 | > 500 | 434 | 483 | 467 | 414 | > 500 | 436 |
